Drawing on patent US8715638B2, “Ethenyl-substituted pyridine and pyrimidine derivatives and their use in treating viral infections” (Merck Sharp & Dohme Corp., priority 2008, dated 2014), this text covers EC90 for eight compounds.

One may read the EC90 as the point of the concentration-response curve where the effect stands at 90%. Low values mean an effect from little substance, high ones a need for much substance.

Structures are written as SMILES.

The subject of the test is HCV replicon cells. The test can be described thus: Cell-based HCV Replicon Assay. The conditions noted are these: Hepatitis C virus, 72 h; HCV replicon RNA level by real time PCR (Taqman), cells harvested on day 3; EC90 = concentration to achieve ΔCT=3.2 over baseline. The method, then: Assays Cell-based HCV Replicon Assay
To measure cell-based anti-HCV activity of the compounds of the present invention, replicon cells were seeded at 5000 cells/well in 96-well collagen I-coated Nunc plates in the presence of the compound of the invention. […] The final concentration of DMSO was 0.5%, fetal bovine serum was 10%, in the assay media. […] The replicon RNA level was measured using real time PCR (Taqman assay). The amplicon was located in 5B. […] GAPDH RNA was used as endogenous control and was amplified in the same reaction as NS5B (multiplex PCR) using primers and VIC-labeled probe recommended by the manufacturer (PE Applied Biosystem). The real-time RT-PCR reactions were run on ABI PRISM 7900HT Sequence Detection System using the following program: 48° C. for 30 min, 95° C. for 10 min, 40 cycles of 95° C. for 15 sec, 60° C. for 1 min. The ΔCT values (CT5B-CTGAPDH) were plotted against the concentration of test compound and fitted to the sigmoid dose-response model using GraphPad PRISM software. EC50 was defined as the concentration of inhibitor necessary to achieve ΔCT=1 over the projected baseline; EC90 the concentration necessary to achieve ΔCT=3.2 over the baseline. Alternatively, to quantitate the absolute amount of replicon RNA, a standard curve was established by including serially diluted T7 transcripts of replicon RNA in the Taqman assay. All Taqman reagents were from PE Applied Biosystems. Such an assay procedure was described in detail in e.g. Malcolm et al., Antimicrobial Agents and Chemotherapy 50: 1013-1020 (2006).
On the technique in general: A replicon is a self-replicating genome or part of one, used to study replication in cells.
`Nc1nc(Cl)c(/C=C/c2cccc(F)c2F)c(N[C@@H]2C[C@H](CO)[C@@H](O)[C@H]2O)n1` [compound 9] registered an EC90 of at most 5 µM.
`CSc1nc(N)nc(N[C@@H]2C[C@H](CO)[C@@H](O)[C@H]2O)c1/C=C/c1ccccc1` [compound 16]: the 90% effect concentration (EC90) is above 5 µM.
The same measure for `Cc1ccccc1/C=C/c1c(Cl)nc(N)nc1N[C@@H]1C[C@H](CO)[C@@H](O)[C@H]1O` [compound 13]: above 5 µM; for `Nc1nc(Cl)c(/C=C/c2cc(F)cc(F)c2)c(N[C@@H]2C[C@H](CO)[C@@H](O)[C@H]2O)n1` [compound 4]: at most 5 µM; for `Nc1nc(Cl)c(/C=C/c2ccccc2F)c(N[C@@H]2C[C@H](CO)[C@@H](O)C2)n1` [compound 15]: above 5 µM.
`Nc1nc(Cl)c(/C=C/c2ccccc2Cl)c(N[C@H]2C=C[C@@H](CO)C2)n1` [compound 17]: the EC90 is above 5 µM.
The result for `Nc1nc(Cl)c(/C=C/c2cccc(Oc3ccccc3)c2)c(N[C@@H]2C[C@H](CO)[C@@H](O)[C@H]2O)n1` [compound 10] reads at most 5 µM; that for `Nc1nc(Cl)c(/C=C/c2ccc(F)c(F)c2)c(N[C@@H]2C[C@H](CO)[C@@H](O)[C@H]2O)n1` [compound 6], at most 5 µM.
